The values that follow come from patent US20260191968A1, “PROTAC DEGRADERS OF MLLT1 AND/OR MLLT3” (DARK BLUE THERAPEUTICS LTD, priority 2024, published 2026).

SMILES strings stand for the structures.

This test has as its target T1, MLLT1 (Homo sapiens, UniProt Q03111).
T1 construct: host or cells: MV4-11
T1 sequence (Q03111 1-559): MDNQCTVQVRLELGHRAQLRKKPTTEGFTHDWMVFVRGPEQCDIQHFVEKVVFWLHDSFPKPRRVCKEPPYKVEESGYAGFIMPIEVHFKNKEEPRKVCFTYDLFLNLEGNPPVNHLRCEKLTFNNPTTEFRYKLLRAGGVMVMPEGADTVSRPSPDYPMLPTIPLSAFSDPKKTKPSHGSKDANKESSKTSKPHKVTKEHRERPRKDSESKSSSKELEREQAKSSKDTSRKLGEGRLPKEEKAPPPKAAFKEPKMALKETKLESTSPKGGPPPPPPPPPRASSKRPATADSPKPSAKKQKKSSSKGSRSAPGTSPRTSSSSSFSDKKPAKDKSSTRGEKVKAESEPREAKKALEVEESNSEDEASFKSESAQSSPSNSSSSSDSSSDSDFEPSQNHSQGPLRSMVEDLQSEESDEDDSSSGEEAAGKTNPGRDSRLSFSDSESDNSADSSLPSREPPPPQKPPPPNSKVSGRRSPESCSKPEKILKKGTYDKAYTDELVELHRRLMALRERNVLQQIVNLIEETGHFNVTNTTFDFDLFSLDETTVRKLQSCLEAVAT
The experiment in a line: MLLT1 degradation assay in MV4-11 cells (JESS chemiluminescent detection), three concentrations, 24 h. It is filed as cell-based. To be noted: with respect to DMSO control. The procedure:
MLLT1 degradation efficacy of compounds were tested in an automated chemiluminescent detection system (JESS, Cat #004-650). […] 10 mM DMSO stocks were prepared, and cells were treated with three concentrations of test compounds viz. 1000, 100 and 10 nM at a final DMSO concentration of 0.1% and incubated for 24 h at 37° C., 5% CO2. […] Post run, data were analysed using “Compass for SW” software for chemiluminescent detection. The peak area for each band was used for the calculation of MLLT1 degradation with respect to DMSO control. Data is shown as “MLLT1% degradation”.

Consider `CN1CCCC1c1cc2cnc(NC(=O)c3ccc(OCC#Cc4cccc5c4CN(C4CCC(=O)NC4=O)C5=O)cn3)cc2[nH]1` (stereo not drawn) [Example 50, 5-[3-[2-(2,6-dioxo-3-piperidyl)-1-oxo-isoindolin-4-yl]prop-2-ynoxy]-N-[2-(1-methylpyrrolidin-2-yl)-1H-pyrrolo[3,2-c]pyridin-6-yl]pyridine-2-carboxamide], for which the “MLLT1% Degradation @ 0.01 μM” value was “B (Category B: 50% ≤ B < 75% degradation)”, the “MLLT1% Degradation @ 0.1 μM” value is “B (Category B: 50% ≤ B < 75% degradation)” and the “MLLT1% Degradation @ 1 μM” value was “B (Category B: 50% ≤ B < 75% degradation)”.

For `CN1CCC[C@@H]1c1cc2cnc(NC(=O)c3ccc(CCCN4CCC(c5cccc6c5CN(C5CCC(=O)NC5=O)C6=O)CC4)cc3)cc2[nH]1` (stereo partly drawn) [Example 198, 4-(3-(4-(2-(2,6-dioxopiperidin-3-yl)-1-oxoisoindolin-4-yl)piperidin-1-yl)propyl)-N-(2-((R)-1-methylpyrrolidin-2-yl)-1H-pyrrolo[3,2-c]pyridin-6-yl)benzamide], the “MLLT1% Degradation @ 0.01 μM” value is “C (Category C: 25% ≤ C < 50% degradation)”, the “MLLT1% Degradation @ 0.1 μM” value is recorded as “A (Category A: A ≥ 75% degradation)” and the “MLLT1% Degradation @ 1 μM” value is “A (Category A: A ≥ 75% degradation)”.

As for `CN1CCC[C@@H]1c1cc2cnc(NC(=O)c3ccc(C4CCN(c5cccc6c5C(=O)N(C5CCC(=O)NC5=O)C6=O)CC4)cc3)cc2[nH]1` (stereo partly drawn) [Example 15, 4-(1-(2-(2,6-dioxopiperidin-3-yl)-1,3-dioxoisoindolin-4-yl)piperidin-4-yl)-N-(2-((R)-1-methylpyrrolidin-2-yl)-1H-pyrrolo[3,2-c]pyridin-6-yl)benzamide], the “MLLT1% Degradation @ 0.01 μM” value is listed as “B (Category B: 50% ≤ B < 75% degradation)”, the “MLLT1% Degradation @ 0.1 μM” value was “A (Category A: A ≥ 75% degradation)” and the “MLLT1% Degradation @ 1 μM” value is given as “B (Category B: 50% ≤ B < 75% degradation)”.

As for `CN1CCC[C@@H]1c1cc2cnc(NC(=O)c3ccc(OCCC4CCN(c5cccc6c5CN(C5CCC(=O)NC5=O)C6=O)CC4)cc3F)cc2[nH]1` (stereo in doubt) [Example 173, 4-(2-(1-(2-((rel-R)-2,6-dioxopiperidin-3-yl)-1-oxoisoindolin-4-yl)piperidin-4-yl)ethoxy)-2-fluoro-N-(2-((R)-1-methylpyrrolidin-2-yl)-1H-pyrrolo[3,2-c]pyridin-6-yl)benzamide], the “MLLT1% Degradation @ 0.01 μM” value was “B (Category B: 50% ≤ B < 75% degradation)”, the “MLLT1% Degradation @ 0.1 μM” value is “A (Category A: A ≥ 75% degradation)” and the “MLLT1% Degradation @ 1 μM” value is reported as “A (Category A: A ≥ 75% degradation)”.

For the compound `CN1CCC[C@@H]1c1cc2cnc(NC(=O)c3ccc(N4CCC(OC5CCN(c6cccc7c6C(=O)N(C6CCC(=O)NC6=O)C7=O)CC5)CC4)cc3)cc2[nH]1` (stereo partly drawn) [Example 136, 4-(4-((1-(2-(2,6-dioxopiperidin-3-yl)-1,3-dioxoisoindolin-4-yl)piperidin-4-yl)oxy)piperidin-1-yl)-N-(2-((R)-1-methylpyrrolidin-2-yl)-1H-pyrrolo[3,2-c]pyridin-6-yl)benzamide], the “MLLT1% Degradation @ 0.01 μM” value was “C (Category C: 25% ≤ C < 50% degradation)”, the “MLLT1% Degradation @ 0.1 μM” value is “B (Category B: 50% ≤ B < 75% degradation)” and the “MLLT1% Degradation @ 1 μM” value is on record as “B (Category B: 50% ≤ B < 75% degradation)”.

In the case of `CN1CCC[C@@H]1c1cc2cnc(NC(=O)c3ccc(OCCC4CCN(c5cccc6c5CN(C5CCC(=O)NC5=O)C6=O)CC4)cc3Cl)cc2[nH]1` (stereo partly drawn) [Example 205, 2-chloro-4-(2-(1-(2-(2,6-dioxopiperidin-3-yl)-1-oxoisoindolin-4-yl)piperidin-4-yl)ethoxy)-N-(2-((R)-1-methylpyrrolidin-2-yl)-1H-pyrrolo[3,2-c]pyridin-6-yl)benzamide], the “MLLT1% Degradation @ 0.01 μM” value is given as “B (Category B: 50% ≤ B < 75% degradation)”, the “MLLT1% Degradation @ 0.1 μM” value is given as “A (Category A: A ≥ 75% degradation)” and the “MLLT1% Degradation @ 1 μM” value is “A (Category A: A ≥ 75% degradation)”.

With `CN1CCC[C@@H]1c1cc2cnc(NC(=O)c3ccc(CCCC#Cc4ccc5c(c4)C(=O)N(C4CCC(=O)NC4=O)C5)cc3)cc2[nH]1` (stereo partly drawn) [Example 225, 4-(5-(2-(2,6-dioxopiperidin-3-yl)-3-oxoisoindolin-5-yl)pent-4-yn-1-yl)-N-(2-((R)-1-methylpyrrolidin-2-yl)-1H-pyrrolo[3,2-c]pyridin-6-yl)benzamide], the “MLLT1% Degradation @ 0.01 μM” value was “C (Category C: 25% ≤ C < 50% degradation)”, the “MLLT1% Degradation @ 0.1 μM” value was “C (Category C: 25% ≤ C < 50% degradation)” and the “MLLT1% Degradation @ 1 μM” value is recorded as “C (Category C: 25% ≤ C < 50% degradation)”.

For the compound `CN1CCC[C@@H]1c1cc2cnc(NC(=O)c3ccc(OCC#Cc4cccc5c4CN(C4CCC(=O)NC4=O)C5=O)c(Cl)c3)cc2[nH]1` (stereo partly drawn) [Example 23, 3-chloro-4-((3-(2-(2,6-dioxopiperidin-3-yl)-1-oxoisoindolin-4-yl)prop-2-yn-1-yl)oxy)-N-(2-((R)-1-methylpyrrolidin-2-yl)-1H-pyrrolo[3,2-c]pyridin-6-yl)benzamide], the “MLLT1% Degradation @ 0.01 μM” value is “C (Category C: 25% ≤ C < 50% degradation)”, the “MLLT1% Degradation @ 0.1 μM” value is “C (Category C: 25% ≤ C < 50% degradation)” and the “MLLT1% Degradation @ 1 μM” value is reported as “C (Category C: 25% ≤ C < 50% degradation)”.

Turning to `CN1CCC[C@@H]1c1cc2cnc(NC(=O)c3ccc(CCCCC#Cc4cccc5c4CN(C4CCC(=O)NC4=O)C5=O)nc3)cc2[nH]1` (stereo partly drawn) [Example 10, 6-(6-(2-(2,6-dioxopiperidin-3-yl)-1-oxoisoindolin-4-yl)hex-5-yn-1-yl)-N-(2-((R)-1-methylpyrrolidin-2-yl)-1H-pyrrolo[3,2-c]pyridin-6-yl) nicotinamide], the “MLLT1% Degradation @ 0.01 μM” value was “A (Category A: A ≥ 75% degradation)”, the “MLLT1% Degradation @ 0.1 μM” value is recorded as “A (Category A: A ≥ 75% degradation)” and the “MLLT1% Degradation @ 1 μM” value is given as “B (Category B: 50% ≤ B < 75% degradation)”.

With `CN1CCC[C@@H]1c1[nH]c2cc(NC(=O)c3ccc(N4CCN(CC#Cc5cccc6c5CN(C5CCC(=O)NC5=O)C6=O)CC4)nc3)ncc2c1Cl` (stereo partly drawn) [Example 72, N-(3-chloro-2-((R)-1-methylpyrrolidin-2-yl)-1H-pyrrolo[3,2-c]pyridin-6-yl)-6-(4-(3-(2-(2,6-dioxopiperidin-3-yl)-1-oxoisoindolin-4-yl)prop-2-yn-1-yl)piperazin-1-yl)nicotinamide], the “MLLT1% Degradation @ 0.01 μM” value is “A (Category A: A ≥ 75% degradation)”, the “MLLT1% Degradation @ 0.1 μM” value was “A (Category A: A ≥ 75% degradation)” and the “MLLT1% Degradation @ 1 μM” value is on record as “C (Category C: 25% ≤ C < 50% degradation)”.

For `CN1CCC[C@@H]1c1cc2cnc(NC(=O)c3ccc(OCCN4CCC5(CC4)CCN(c4ccc6c(c4)C(=O)N(C4CCC(=O)NC4=O)C6=O)CC5)cc3)cc2[nH]1` (stereo partly drawn) [Example 166, 4-(2-(9-(2-(2,6-dioxopiperidin-3-yl)-1,3-dioxoisoindolin-5-yl)-3,9-diazaspiro[5.5]undecan-3-yl)ethoxy)-N-(2-((R)-1-methylpyrrolidin-2-yl)-1H-pyrrolo[3,2-c]pyridin-6-yl)benzamide], the “MLLT1% Degradation @ 0.01 μM” value was “C (Category C: 25% ≤ C < 50% degradation)”, the “MLLT1% Degradation @ 0.1 μM” value is listed as “A (Category A: A ≥ 75% degradation)” and the “MLLT1% Degradation @ 1 μM” value is recorded as “A (Category A: A ≥ 75% degradation)”.

For the compound `CN1CCC[C@@H]1c1cc2cnc(NC(=O)c3ccc(CCCC#Cc4ccc(C(=O)N[C@H]5CCC(=O)NC5=O)nc4)cc3)cc2[nH]1` [Example 11, N—((S)-2,6-dioxopiperidin-3-yl)-5-(5-(4-((2-((R)-1-methylpyrrolidin-2-yl)-1H-pyrrolo[3,2-c]pyridin-6-yl)carbamoyl)phenyl)pent-1-yn-1-yl)picolinamide], the “MLLT1% Degradation @ 0.01 μM” value was “D (Category D: D < 25% degradation)”, the “MLLT1% Degradation @ 0.1 μM” value is recorded as “C (Category C: 25% ≤ C < 50% degradation)” and the “MLLT1% Degradation @ 1 μM” value is reported as “B (Category B: 50% ≤ B < 75% degradation)”.

`CN1CCC[C@@H]1c1cc2cnc(NC(=O)c3ccc(N4CCC(c5ccc(-c6cccc7c6C(=O)N(C6CCC(=O)NC6=O)C7=O)cc5)CC4)nc3)cc2[nH]1` (stereo partly drawn) [Example 178, 6-(4-(4-(2-(2,6-dioxopiperidin-3-yl)-1,3-dioxoisoindolin-4-yl)phenyl)piperidin-1-yl)-N-(2-((R)-1-methylpyrrolidin-2-yl)-1H-pyrrolo[3,2-c]pyridin-6-yl)nicotinamide]: the “MLLT1% Degradation @ 0.01 μM” value is listed as “C (Category C: 25% ≤ C < 50% degradation)”, the “MLLT1% Degradation @ 0.1 μM” value is recorded as “B (Category B: 50% ≤ B < 75% degradation)” and the “MLLT1% Degradation @ 1 μM” value is “B (Category B: 50% ≤ B < 75% degradation)”.
